Measurements from US12077501B2, “Compounds and compositions for intracellular delivery of agents” (ModernaTX, Inc., priority 2017, dated 2024).

Legend:
[1] = Lipid clearance: % dose remaining, Tables 7c and 8b-8e (species not given); format: in vivo
From the text: In contrast, hEPO expression in rats induced by administration of a nanoparticle composition including a compound according to one of formulae (I), (Ia1)-(Ia6), (Ib), (II), (IIa), (III), and (IIIa) was substantially […] than that measured for MC3. […] Tables 7c and 7d show additional protein expressions and clearance data from compositions with various compounds disclosed herein as compared to with MC3. Tables 7e, 7f and 7g show hEPO expression data in CD-1 mice at a dose of 0.5 mpk.

[2] = system: hEPO expression; assay: hEPO (miR126 + miR142) mRNA expression, Tables 8b-8e; format: in vivo; conditions: for AUC (mIU/mL*h): lipid:Chol:PEG 1 50:47.5:2.5, Table 8e
[3] = Encapsulation efficiency of RNA (QUANT-IT RIBOGREEN RNA assay); format: physicochemical; conditions: Formulated with lipid:Chol:DOPE:PEG 1 40:38.5:20:1.5
Summary of the method: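 Samples diluted to about 5 μg/mL RNA in TE buffer pH 7.5, treated with buffer or 2% Triton X-100 for 15 min at 37° C, then stained with RiboGreen (1:100). Fluorescence at about 480/520 nm, blank-subtracted; free RNA fraction is intact over Triton-disrupted signal.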

[4] = Particle size and polydispersity index of nanoparticle compositions (Zetasizer Nano ZS); format: physicochemical; conditions: Formulated with lipid:Chol:DOPE:PEG 1 40:38.5:20:1.5
Procedure: A Zetasizer Nano ZS (Malvem Instruments Ltd, Malvem, Worcestershire, UK) can be used to determine the particle size, the polydispersity index (PDI) and the zeta potential of the nanoparticle compositions in 1×PBS in determining particle size and 15 mM PBS in determining zeta potential.

[5] = lipid:Chol:PEG 1 50:47.5:2.5, Table 8e

Row | Compound | % Dose Remaining (liver, 24 h) ([1]; Table 8b) | EE (%) ([3]; Table 1d) | PDI ([4]; Table 1d) | Size (nm) ([4]; Table 1d) | % Dose Remaining (liver, 24 h) ([1]; Table 8c) | EE (%) ([3]; Table 1e) | PDI ([4]; Table 1e) | Size (nm) ([4]; Table 1e) | AUC ([2]; Table 8b) | AUC ([2]; Table 8c) | further results
1 | CCCC/C=C\CCCCCCCCN(CCCOC(=O)CCCCCCCCC)CC(=O)N1CCN(C(=O)CN(CCCCCCCCC)CCN(CCCCCCCCC)CCCCCCCCC)CC1 [Compound 140, (Z)-3-((2-(4-(N-(2-(Dinonylamino)ethyl)-N-nonylglycyl)piperazin-1-yl)-2-oxoethyl)(tetradec-9-en-1-yl)amino)propyl Decanoate] | 1.66% | 86.9% | 0.14 | 131.1 nm |  |  |  |  | 4.55e+07 pg·h/mL |  | 
2 | CCCCCCCCCCCCCCN(C/C=C\COC(=O)CCCCCCCC)CC(=O)N1CCN(C(=O)CN(CCCCCCCCC)CCN(CCCCCCCCC)CCCCCCCCC)CC1 [Compound 141, (Z)-4-((2-(4-(N-(2-(dinonylamino)ethyl)-N-nonylglycyl)piperazin-1-yl)-2-oxoethyl)(tetradecyl)amino)but-2-en-1-yl nonanoate] | 1.41% | 97.6% | 0.15 | 131.5 nm |  |  |  |  | 2.7e+07 pg·h/mL |  | 
3 | CCCCCCCCCN(CCCCCCCCC)CCN(CCCCCCCCC)CC(=O)N(CC)CCN(CC)C(=O)CN(CCCCCCCCC)CCCCCCCCC [Compound 157, 2-(dinonylamino)-N-(2-(2-((2-(dinonylamino)ethyl)(nonyl)amino)-N-ethylacetamido)ethyl)-N-ethylacetamide] | 42.48% | 98.3% | 0.11 | 89.8 nm |  |  |  |  | 2.08e+08 pg·h/mL |  | 
4 | CCCCCCCCCCCCCCN(CCCOC(=O)CCCCCCCCC)CC(=O)N(C)CCN(C)C(=O)CN(CCCCCCCCC)CCN(CCCCCCCCC)CCCCCCCCC [Compound 158, 7,10-dimethyl-13,16-dinonyl-6,11-dioxo-4-tetradecyl-4,7,10,13,16-pentaazapentacosyl Decanoate] | 0.30% | 97.8% | 0.20 | 124.2 nm |  |  |  |  | 1.03e+07 pg·h/mL |  | 
5 | CCCCCCCCCN(CCCCCCCCC)CCCOCCCN(CCCCCCCCC)CCN(CCCCCCCCC)CCCCCCCCC [Compound 161, N^1-(3-(3-(dinonylamino)propoxy)propyl)-N^1,N^2,N^2-trinonylethane-1,2-diamine] |  |  |  |  | 113.64% | 97.8% | 0.17 | 61.8 nm |  | 128000 pg·h/mL | 
6 | CCCCCCCCCCNC(=O)CN(CCCCCCCCC)CCN(CCCCCCCCC)CCCCCCCCC [Compound 162, N-decyl-2-((2-(dinonylamino)ethyl)(nonyl)amino)acetamide] |  |  |  |  | 63.12% | 98.4% | 0.23 | 73.1 nm |  | 2.3e+07 pg·h/mL | 
7 | CCCCCCCCCCN(CCCCCCCCCC)CCCCC(=O)N1CCN(C(=O)CCCCN(CCCCCCCCCC)CCCCCCCCCC)CC1 [Compound 164, 1,1′-(Piperazine-1,4-diyl)bis(5-(didecylamino)pentan-1-one)] |  |  |  |  | 40.18% | 97.7% | 0.15 | 74.4 nm |  | 4.09e+06 pg·h/mL | 
8 | CCCCCCCCCN(CCCCCCCCC)CCN(CCCCCCCCC)CC(=O)NCCCCOC(=O)CCCC [Compound 165, 4-(2-((2-(dinonylamino)ethyl)(nonyl)amino)acetamido)butyl pentanoate] |  |  |  |  | 0.13% | 97.0% | 0.22 | 107.8 nm |  | 9.38e+07 pg·h/mL | 
9 | CCCCCCCCCCCCCCOC(=O)CN(CCCCCCCCC)CCN(CCCCCCCCC)CCCCCCCCC [Compound 167, Tetradecyl N-(2-(dinonylamino)ethyl)-N-nonylglycinate] |  |  |  |  | 89.60% | 97.6% | 0.22 | 64.5 nm |  | 0 pg·h/mL | 
10 | CCCCCCCCCCCCCC(=O)OCCN(CCCCCCCCC)CCN(CCCCCCCCC)CCCCCCCCC [Compound 169, 2-((2-(Dinonylamino)ethyl)(nonyl)amino)ethyl Tetradecanoate] |  |  |  |  | 0.30% | 97.6% | 0.24 | 72.5 nm |  | 0 pg·h/mL | 
11 | CCCCCCCCCOC(=O)CCCCCCCN(CCCCCCCC(=O)OCCCCCCCCC)CCCCCN(CCCCCCCCC)CCCCCCCCC [Compound 177, Dinonyl 8,8′-((5-(dinonylamino)pentyl)azanediyl)dioctanoate] |  |  |  |  |  |  |  |  |  |  | % Dose Remaining (liver, 24 h) [1, 5]: 35.91%; AUC (mIU/mL*h) [2]: 6.84E+07 mIU/mL*h
12 | CCCCCCCCCOC(=O)CCCCCCCN(CCCCCCCC(=O)OC(CCCCCCCC)CCCCCCCC)CCCCCN(CCCCCCCCC)CCCCCCCCC [Compound 178, Heptadecan-9-yl 8-((5-(dinonylamino)pentyl)(8-(nonyloxy)-8-oxooctyl)amino)octanoate] |  |  |  |  |  |  |  |  |  |  | % Dose Remaining (liver, 24 h) [1, 5]: 44.93%; AUC (mIU/mL*h) [2]: 8.44E+07 mIU/mL*h
13 | CCCCCCCCCOC(=O)CCCCCCCN(CCCCCCCC(=O)OCCCCCCCCC)CCOCCN(CCCCCCCCC)CCCCCCCCC [Compound 179, Dinonyl 8,8′-((2-(2-(dinonylamino)ethoxy)ethyl)azanediyl)dioctanoate] |  |  |  |  |  |  |  |  |  |  | % Dose Remaining (liver, 24 h) [1, 5]: 26.22%; AUC (mIU/mL*h) [2]: 7.79E+06 mIU/mL*h
14 | CCCCCCCCCOC(=O)CCCCCCCN(CCCCCCCC(=O)OC(CCCCCCCC)CCCCCCCC)CCOCCN(CCCCCCCCC)CCCCCCCCC [Compound 180, Heptadecan-9-yl 8-((2-(2-(dinonylamino)ethoxy)ethyl)(8-(nonyloxy)-8-oxooctyl)amino)octanoate] |  |  |  |  |  |  |  |  |  |  | % Dose Remaining (liver, 24 h) [1, 5]: 50.47%; AUC (mIU/mL*h) [2]: 6.53E+07 mIU/mL*h
15 | CCCCCCCCCOC(=O)CCCCCCCN(CCCCCCCC(=O)OC(CCCCCCCC)CCCCCCCC)CCCCC(=O)N(CC)CCN(CC)C(=O)CCCCN(CCCCCCCC(=O)OCCCCCCCCC)CCCCCCCC(=O)OC(CCCCCCCC)CCCCCCCC [Compound 181, Di(heptadecan-9-yl) 15,18-diethyl-9,24-bis(8-(nonyloxy)-8-oxooctyl)-14,19-dioxo-9,15,18,24-tetraazadotriacontanedioate] |  |  |  |  |  |  |  |  |  |  | % Dose Remaining (liver, 24 h) ([1]; Table 8d): 2.51%; AUC ([2]; Table 8d): 1.69e+08 pg·h/mL; EE (%) ([3]; Table 1f): 97.7%; PDI ([4]; Table 1f): 0.25; Size (nm) ([4]; Table 1f): 129.9 nm

Now from value to molecule, other results behind:

Row | % Dose Remaining (liver, 24 h) ([1]; Table 8b) | EE (%) ([3]; Table 1d) | PDI ([4]; Table 1d) | Size (nm) ([4]; Table 1d) | % Dose Remaining (liver, 24 h) ([1]; Table 8c) | EE (%) ([3]; Table 1e) | PDI ([4]; Table 1e) | Size (nm) ([4]; Table 1e) | Compound | AUC ([2]; Table 8b) | AUC ([2]; Table 8c) | further results
16 | 84.71% | 97.2% | 0.23 | 116.7 nm |  |  |  |  | CCCCCCCCCN(CCCCCCCCC)CCN(CCCCCCCCC)CC(=O)NCCNC(=O)CN(CCCCCCCCC)CCCCCCCCC [Compound 153, 2-(dinonylamino)-N-(2-(2-((2-(dinonylamino)ethyl)(nonyl)amino)acetamido)ethyl)acetamide] | 5.62e+07 pg·h/mL |  | 
17 | 78.44% | 97.8% | 0.18 | 103.3 nm |  |  |  |  | CCCCC/C=C\CCN(CC/C=C\CCCCC)CCN(CC/C=C\CCCCC)CC(=O)N(C)CCN(C)C(=O)CN(CCCCCCCCC)CCCCCCCCC [Compound 154, 2-((2-(di((Z)-non-3-en-1-yl)amino)ethyl)((Z)-non-3-en-1-yl)amino)-N-(2-(2-(dinonylamino)-N-methylacetamido)ethyl)-N-methylacetamide] | 1.37e+08 pg·h/mL |  | 
18 | 78.61% | 98.4% | 0.22 | 84.4 nm |  |  |  |  | CCCCCCCCCN(CCCCCCCCC)CCN(CCCCCCCCC)CC(=O)N(C)CCCN(C)C(=O)CN(CCCCCCCCC)CCCCCCCCC [Compound 155, 2-(dinonylamino)-N-(3-(2-((2-(dinonylamino)ethyl)(nonyl)amino)-N-methylacetamido)propyl)-N-methylacetamide] | 8.89e+07 pg·h/mL |  | 
19 | 60.54% | 97.3% | 0.25 | 115.5 nm |  |  |  |  | CCCCCCCCCN(CCCCCCCCC)CCCCCCCCN(CCCCCCCCC)CCN(CCCCCCCCC)CCCCCCCCC [Compound 160, N^1-(2-(dinonylamino)ethyl)-N^1,N^8,N^8-trinonyloctane-1,8-diamine] | 219000 pg·h/mL |  | 
20 |  |  |  |  | 65.12% | 98.1% | 0.23 | 88.6 nm | CCCCCCCCCCCCCCNC(=O)CN(CCCCCCCCC)CCN(CCCCCCCCC)CCCCCCCCC [Compound 163, 2-((2-(dinonylamino)ethyl)(nonyl)amino)-N-tetradecylacetamide] |  | 1.01e+07 pg·h/mL | 
21 |  |  |  |  | 75.26% | 97.1% | 0.24 | 59.4 nm | CCCCCCCCCOC(=O)CN(CCCCCCCCC)CCN(CCCCCCCCC)CCCCCCCCC [Compound 166, Nonyl N-(2-(dinonylamino)ethyl)-N-nonylglycinate] |  | 0 pg·h/mL | 
22 |  |  |  |  | 2.74% | 97.3% | 0.17 | 60.0 nm | CCCCCCCCCN(CCCCCCCCC)CCN(CCCCCCCCC)CCOC(=O)CCCCCCCC [Compound 168, 2-((2-(Dinonylamino)ethyl)(nonyl)amino)ethyl Nonanoate] |  | 0 pg·h/mL | 
